This is an account of results in US20090105149A1, “Compounds comprising lpa” (ENKAM PHARMACEUTICALS A/S, priority 2003, published 2009).

Marks after values point to notes of the source that are not given here.

In test [1] the test system is organotypic hippocampal neuronal slice cultures (OHSC). Briefly: OGD, propidium iodide staining of OHSC. Format: cell-based, rat. The text has this:
In the present study it was investigated the effect of the FGL peptide on synaptic plasticity, neuronal function and vulnerability following oxygen and glucose deprivation (OGD) in organotypic hippocampal neuronal slice cultures (OHSC) from 7-day-old Wistar rats according to method of Stoppini et al. (1991) Neurosci Methods. 37:173-82 and primary cultures of dissociated hippocampal neurons from 1-day-old rats according to method of Maar et al. (1997) J Neurosci Res. 47:163-72. Primary cell cultures were maintained for 11-12 days and OHSC for 12-14 days prior to adding FGLd.
The primary cell cultures and OHSC were exposed to OGD for 10 and 20 minutes. Following OGD, the cultures were again supplied with oxygen and glucose and analysed at 1, 4 or 24 hour time point after introduction of OGD exposure. FGLd (or the control peptide FGLc) was added 24 hr before, immediately, or 1 hr or 24 hr after OGD. When administered prior to OGD, FGLd was removed from the medium when introducing OGD. In some cases, the slice cultures were treated with FGLd only at 4 hr after OGD. In addition, the FGFR inhibitor, SU5402 (25 μM), was added together with FGLd in some of the set-ups.
In hippocampal neuronal cultures, FM 1-43 staining was used to evaluate pre-synaptic function (described above). Cell viability in both primary cell cultures and OHSC was measured using the […] [3-(4,5-dimethylthiazol-2-yl)-2,5-diphenyltetrazolium bromide] assay according to Malich et al, (1997) Toxicology. 124:179-92. In, addition, cell viability in OHSC was measured using propidium iodide (PI) staining according to Laake et al. (1999) Brain Res Brain Res Protoc. 4:173-84.

Test [2] deals with rats treated with (25-35) β-amyloid fragment. Briefly: Light-dark Discriminating Y-maze with positive food reinforcement. Format: in vivo, rat. How it is done:
The present study employed a rat model, in which neurotoxicity and cognitive impairment were induced by the (25-35) β-amyloid peptide fragment (see Maurice T., et al. (1996) (Brain Res. 706:181-93) and Delobette S., et al. (1997) Eur J Pharmacol. 319:1-4). Short-term memory deficit induced by the (25-35) β-amyloid peptide fragment in rat is of special importance to study, as it resembles one of the clinical manifestations of Alzheimer's disease. Short-term memory deficit in rats was evaluated using three different behavioural tests: the Social Recognition (Kogan et al, (2000) Hippocampus 10:47-56), Open Field (Cerbone and Sadile, (1994) Neurosci Biobehav Rev. 18:497-518; Vianna et al, (2000) Learn Mem. 7:333-40) and Y-maze (Clayton & Williams, (2000) Neurobiol Learn Mem. 74:135-45) tests. […]
Behaviour of animals was evaluated using the Social Recognition test, the Open Field test or the Light-dark Discriminating γ-maze. On day 28-30 or day 51 after i.c.v. administration of the (25-35) β-amyloid fragment, the animals were sacrificed, and in selected studies, the brain tissue was collected, histological sections were immunostained with A-β specific antibodies and the amyloid-burden was calculated as a percentage of the A-βpositive area. In addition, the number of neurons in selected areas of brain-sections was calculated using a stereological approach.

Another test deals with rats. Briefly: Morris Water Maze test. Format: in vivo, rat. The procedure: In the Morris Water Maze test, rats are evaluated in the spatial training task to find a hidden platform in order to escape swimming in the water.
In the Morris Water Maze study, rats were pre-trained to locate a hidden platform by daily training for 120 seconds for five days (days−4 to 0) before the experiment. On days 1 and 2, rats were given 3 consecutive trials in which the platform location remained constant. The time during which the rats were able to locate the platform was recorded within a maximum test-period of 120 seconds. The rats received a 5 μl injection of the FGLd peptide (5 μg), the control peptide (5 μg), or the vehicle solution immediately after each training trial on days 1 and 2.
The animals were tested 24 hours (day 3) and 7 days (day 10) after training. Fourteen days after training (day 17), the location of the platform was changed. Rats were trained to find a new location of the platform in three consecutive trials (“reversal learning”). In total, 48 animals were evaluated. Animals were divided into three groups consisting of 12-18 rats per treatment group.

For a further test, the system named is dopaminergic neurons. Briefly: Survival of dopaminergic neurons exposed to 6-OHDA. Format: cell-based, rat. How it is done:
Dopaminergic neurons (DN) (a and b) from day 15 rat embryos grown at a density of 150,000 cells/cm^2 for six days without or with various concentrations of peptide on 24-well cell culture plates coated with poly-D-lysine were exposed to 100 μM 6-OHDA for two hours. Medium was changed and various concentrations of FGLd were added. The neurons were grown for another 24 hours before the cultures they were fixed and immunostained for tyrosine hydroxylase.
Dopaminergic neurons were prepared from Wistar rat embryos at embryonic day 15 (Charles River, Sulzfeld, Germany or Møllegaard, Denmark). A pregnant rat was sacrificed and the uterus was taken out and kept on ice in Hank's balanced salt solution (HBSS; Gibco, BRL). The ventral part of the mesencephalon was dissected from the embryonic brains, homogenised on ice in Gey's balanced salt solution (GBSS; Gibco, BRL) supplemented with 5 g glucose/l (Sigma-Aldrich) and thereafter trypsinised. The dissociated cells were washed in the presence of DNAse 1 and soybean trypsin inhibitor (Sigma-Aldrich).
For the survival assay isolated neurons were seeded at a density of 150,000 cells/cm^2 in 24-well cell culture plates coated with poly-D-lysine as described above. The neurons were left to differentiate for six days without or with various concentrations of the FGL peptide, after which 6-OHDA was added at a concentration of 100 μM for two hours. A stock solution was prepared by dissolving 6-OHDA to a concentration of 10 mM in 0.1% (w/v) sodium metabisulfite in order to prevent oxidation. After two hours with 6-OHDA, the medium was changed to Neurobasal medium with supplements and peptide, and the cell cultures were further incubated for 24 hours, fixed and immunostained for tyrosine hydroxylase. 98 images for each experimental condition in each individual experiment were automatically recorded as described for the dopaminergic neurite outgrowth assay below.

As to “FGLd: MAP-type dendrimer of FGL; dendrimeric tetramer of the FGL peptide (EVYVVAENQQGKSKA)”, the “PI staining (cell damage) after 10 minutes of OGD” value is “almost completely abolished” in test [1] (slices pre-treated for 24 hours), “Cell damage was also avoided” in test [1] (treated immediately after OGD) and “not if FGLd treatment was delayed until 4 hours after OGD” in test [1] (treatment delayed until 4 hours after OGD). Further, the number of errors in test [2] (day 25, last day of training, sub-occipital, β-amyloid control 3.8) was 1.7; in test [2] (training days 21-24, vs β-amyloid fragment-treated control) it was “no significant differences”. For the same substance, in the test on rats (day 2, 5 μg after training, untreated rats 93.0 s), the “time to locate the platform” value was 65.8 s. The “time to locate the platform (reversal learning)” value in the test on rats (day 17) is “statistically significant”. Moreover, the “Neuronal Survival (% of Control)” value with dopaminergic neurons (6-OHDA, DA (E14), 1 μg/mL) is 143%* % of Control. Moreover, the “survival of dopaminergic neurons treated with 6-OHDA, maximal rescue” value in the test with dopaminergic neurons (at 1 μg/ml, 6-OHDA-treated control = 100%) was “approximately 135%”.
